Experiment [1] concerns H9. Put plainly: Compound was evaluated for cytotoxicity in H9 lymphocytes. Format: functional, cell-based. Conditions: Homo sapiens.
For experiment [2], the system named is H9. Put plainly: Compound was evaluated for anti-HIV activity in H9 lymphocytes. Conditions: Homo sapiens. Format: functional, cell-based.

Our source for the IC50 and EC50 values is ChEMBL document CHEMBL1130995, “Anti-AIDS agents. 32. Synthesis and anti-HIV activity of betulin derivatives” (Bioorg Med Chem Lett, 1998).

The IC50 is the concentration that gives 50% inhibition. Read a low IC50 as greater potency. The term EC50 denotes the concentration giving half of the maximal effect. Low readings indicate a more potent agent, high ones a less potent agent. The compound `C=C(C)[C@@H]1CC[C@]2(COC(=O)CC(C)(C)CC(=O)O)CC[C@]3(C)[C@H](CC[C@@H]4[C@@]5(C)CCC(=O)C(C)(C)[C@@H]5CC[C@]43C)[C@@H]12` displayed an IC50 with H9 [1] of 29.2 µM. In addition, in the experiment with H9 [2], the EC50 was 10 µM.

Take `CC(C)[C@@H]1CC[C@]2(COC(=O)CC(C)(C)CC(=O)O)CC[C@]3(C)[C@H](CC[C@@H]4[C@@]5(C)CC[C@H](OC(=O)CC(C)(C)CC(=O)O)C(C)(C)[C@@H]5CC[C@]43C)[C@@H]12`: in the experiment on H9 [1], the IC50 came out at 10.6 µM. Further, the EC50 with H9 [2] was determined as 0.0047 µM.

Take `C=C(C)[C@@H]1CC[C@]2(COC(=O)CC3(CC(=O)O)CCCC3)CC[C@]3(C)[C@H](CC[C@@H]4[C@@]5(C)CC[C@H](OC(=O)CC6(CC(=O)O)CCCC6)C(C)(C)[C@@H]5CC[C@]43C)[C@@H]12`: half-maximal inhibition with H9 [1] (IC50) was put at 20.5 µM. For the same compound, in the experiment with H9 [2], the EC50 is 0.077 µM.

In the case of `CCC(C)(CC(=O)O)CC(=O)OC[C@]12CC[C@@H](C(C)C)[C@@H]1[C@H]1CC[C@@H]3[C@@]4(C)CC[C@H](OC(=O)CC(C)(CC)CC(=O)O)C(C)(C)[C@@H]4CC[C@@]3(C)[C@]1(C)CC2` (some centres undefined), the IC50 in the experiment on H9 [1] was 18.7 µM. In the experiment with H9 [2], this compound gave an EC50 of 0.075 µM.

`C=C(C)[C@@H]1CC[C@]2(COC(=O)CC(C)(C)CC(=O)O)CC[C@]3(C)[C@H](CC[C@@H]4[C@@]5(C)CC=CC(C)(C)[C@@H]5CC[C@]43C)[C@@H]12` returned an IC50 with H9 [1] of 28.3 µM. In the experiment with H9 [2], the EC50 is 5.4 µM.

As for `C=C(C)[C@@H]1CC[C@]2(COC(=O)CC(C)(C)CC(=O)O)CC[C@]3(C)[C@H](CC[C@@H]4[C@@]5(C)CC[C@H](O)C(C)(C)[C@@H]5CC[C@]43C)[C@@H]12`, the IC50 in the experiment with H9 [1] was 28.2 µM. Besides, a half-maximal effect in the experiment on H9 [2] (EC50) was put at 3.6 µM.

Regarding `C=C(C)[C@@H]1CC[C@]2(C(=O)O)CC[C@]3(C)[C@H](CC[C@@H]4[C@@]5(C)CC[C@H](OC(=O)CC(C)(C)CC(=O)O)C(C)(C)[C@@H]5CC[C@]43C)[C@@H]12`, the EC50 in the experiment on H9 [2] came to 0.0023 µM.

Consider `C=C(C)[C@@H]1CC[C@]2(COC(=O)CC(C)(CC)CC(=O)O)CC[C@]3(C)[C@H](CC[C@@H]4[C@@]5(C)CC[C@H](OC(=O)CC(C)(CC)CC(=O)O)C(C)(C)[C@@H]5CC[C@]43C)[C@@H]12` (some centres undefined), for which, in the experiment on H9 [1], inhibition was half-maximal at 18.4 µM (IC50). In addition, in the experiment with H9 [2], the EC50 amounted to 0.0053 µM.

Consider `C=C(C)[C@@H]1CC[C@]2(CO)CC[C@]3(C)[C@H](CC[C@@H]4[C@@]5(C)CC=CC(C)(C)[C@@H]5CC[C@]43C)[C@@H]12`, for which the IC50 with H9 [1] was 31.9 µM. The EC50 in the experiment on H9 [2] amounted to 11.9 µM.

For the compound `C=C(C)[C@@H]1CC[C@]2(COC(=O)CC(C)(C)CC(=O)O)CC[C@]3(C)[C@H](CC[C@@H]4[C@@]5(C)CC[C@H](OC(=O)CC(C)(C)CC(=O)O)C(C)(C)[C@@H]5CC[C@]43C)[C@@H]12`, the midpoint of inhibition in the experiment with H9 [1], the IC50, lay at 14.2 µM. Moreover, a half-maximal response with H9 [2] (EC50) required 0.00066 µM.

Take `CC(C)[C@@H]1CC[C@]2(COC(=O)CC3(CC(=O)O)CCCC3)CC[C@]3(C)[C@H](CC[C@@H]4[C@@]5(C)CC[C@H](OC(=O)CC6(CC(=O)O)CCCC6)C(C)(C)[C@@H]5CC[C@]43C)[C@@H]12`: in the experiment on H9 [1], the concentration for half-maximal inhibition (IC50) stood at 21.6 µM. In the experiment on H9 [2], this compound showed an EC50 of 0.58 µM.

In the experiment on H9 [1], `C=C(C)[C@@H]1CC[C@]2(CO)CC[C@]3(C)[C@H](CC[C@@H]4[C@@]5(C)CC[C@H](O)C(C)(C)[C@@H]5CC[C@]43C)[C@@H]12` [BETULIN] displayed an IC50 of 43.7 µM. Moreover, the EC50 in the experiment with H9 [2] was determined as 23 µM.

In the experiment with H9 [2], `Cc1cn([C@H]2C[C@H](N=[N+]=[N-])[C@@H](CO)O2)c(=O)[nH]c1=O` [ZIDOVUDINE] yielded an EC50 of 0.015 µM. That is a double-digit nanomolar value.
